Structures are written as SMILES. Some results are limits rather than exact numbers.

For test [1], the system named is HCT116-MTAP-KO. Nature of the test: Cell killing in HCT116 isogenic pair (Cell Titer-Glo viability), MTAP knock-out cells. The test is classed as cell-based, human. Conditions: Homo sapiens, HCT-116, 144 h, 6 days incubation, 0-10 μM, * = more than 50% viability inhibition at tested concentration without a full curve. Put shortly:
(§1)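 HCT116 MTAP-knockout or mock-knockout (MTAP wildtype) cells in RPMI 1640 with 10% FBS were seeded overnight, then exposed to test compound at 0–10 μM final for 6 days at 37° C. Viability was measured by CellTiter-Glo luminescence and IC50 was fitted.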

Test [2] concerns HCT116-mock-RNA-KO. Nature of the test: Cell killing in HCT116 isogenic pair (Cell Titer-Glo viability), mock knock-out cells with MTAP wildtype genotype. The test is classed as cell-based, human. To be noted: Homo sapiens, HCT-116, 144 h, 6 days incubation, 0-10 μM. The gist of the method: as §1

As for `CCN(C(=O)c1cc2nc(N)c3c(c2[nH]1)COC3)[C@H](C)c1ccc(Br)cc1F` [Example 133, (R)-5-amino-N-(1-(4-bromo-2-fluorophenyl)ethyl)-N-ethyl-6,8-dihydro-1H-furo[3,4-d]pyrrolo[3,2-b]pyridine-2-carboxamide], the IC50 in test [1] was found to be 13 nM; in test [2] it was 1340 nM.
Regarding `CCN(C(=O)c1cc2nc(N)c3c(c2[nH]1)COC3)[C@@H](C)c1ccc(Br)cc1F` [Example 134, (S)-5-amino-N-(1-(4-bromo-2-fluorophenyl)ethyl)-N-ethyl-6,8-dihydro-1H-furo[3,4-d]pyrrolo[3,2-b]pyridine-2-carboxamide], the results for the IC50 in test [1] and in test [2] were 336 nM and 2880 nM, respectively.
Turning to `CCN(C(=O)c1cc2nc(N)c3c(c2[nH]1)COC3)[C@H](C)c1ccc(C(F)(F)F)cc1F` [Example 135, (R)-5-amino-N-ethyl-N-(1-(2-fluoro-4-(trifluoromethyl)phenyl)ethyl)-6,8-dihydro-1H-furo[3,4-d]pyrrolo[3,2-b]pyridine-2-carboxamide], the half-maximal inhibitory concentration (IC50) in test [1] stood at 26 nM; in test [2], 2130 nM.
On the same counts, the results for `CCN(C(=O)c1cc2nc(N)c3c(c2[nH]1)COC3)[C@@H](C)c1ccc(C(F)(F)F)cc1F` [Example 136, (S)-5-amino-N-ethyl-N-(1-(2-fluoro-4-(trifluoromethyl)phenyl)ethyl)-6,8-dihydro-1H-furo[3,4-d]pyrrolo[3,2-b]pyridine-2-carboxamide] are 245 nM and 3520 nM.
With `C[C@H](c1ccc(Br)cc1F)N(C)C(=O)c1cc2nc(N)c3c(c2[nH]1)COC3` [Example 137, (R)-5-amino-N-(1-(4-bromo-2-fluorophenyl)ethyl)-N-methyl-6,8-dihydro-1H-furo[3,4-d]pyrrolo[3,2-b]pyridine-2-carboxamide], the figures for the IC50 in test [1] and in test [2] were 44 nM and 3020 nM, respectively.
On the same counts, the results for `C[C@@H](c1ccc(Br)cc1F)N(C)C(=O)c1cc2nc(N)c3c(c2[nH]1)COC3` [Example 138, (S)-5-amino-N-(1-(4-bromo-2-fluorophenyl)ethyl)-N-methyl-6,8-dihydro-1H-furo[3,4-d]pyrrolo[3,2-b]pyridine-2-carboxamide] are 913 nM and 3240 nM.
On the same counts, the results for `C[C@H](c1ccc(Br)cc1F)N(C)C(=O)c1cc2nc(N)c3c(c2[nH]1)CO[C@@H]3C` [Example 139, (R)-5-amino-N—((R)-1-(4-bromo-2-fluorophenyl)ethyl)-N,6-dimethyl-6,8-dihydro-1H-furo[3,4-d]pyrrolo[3,2-b]pyridine-2-carboxamide] are 12 nM and 2400 nM.
On the same counts, the results for `C[C@H]1OCc2c1c(N)nc1cc(C(=O)N(C)[C@@H](C)c3ccc(Br)cc3F)[nH]c21` [Example 140, (R)-5-amino-N—((S)-1-(4-bromo-2-fluorophenyl)ethyl)-N,6-dimethyl-6,8-dihydro-1H-furo[3,4-d]pyrrolo[3,2-b]pyridine-2-carboxamide] are 270 nM and 3030 nM.
For `Nc1nc2cc(C(=O)N3CCOC[C@@H]3c3ccc(C(F)(F)F)cc3)[nH]c2c2c1COC2` [Example 141, (S)-(5-amino-6,8-dihydro-1H-furo[3,4-d]pyrrolo[3,2-b]pyridin-2-yl)(3-(4-(trifluoromethyl)phenyl)morpholino)methanone], the half-maximal inhibitory concentration (IC50) in test [1] was 149 nM; in test [2] it was over 10000 nM.
On the same counts, the results for `C[C@H](c1ncc(C2CC2)cc1F)N(C)C(=O)c1cc2nc(N)c3c(c2[nH]1)CO[C@@H]3C` [Example 142, (R)-5-amino-N—((R)-1-(5-cyclopropyl-3-fluoropyridin-2-yl)ethyl)-N,6-dimethyl-6,8-dihydro-1H-furo[3,4-d]pyrrolo[3,2-b]pyridine-2-carboxamide] are 2.6 nM and 477 nM.
On the same counts, the results for `CCN(C(=O)c1cc2nc(N)c3c(c2[nH]1)COC3)[C@H](C)c1ncc(Br)cc1F` [Example 143, (R)-5-amino-N-(1-(5-bromo-3-fluoropyridin-2-yl)ethyl)-N-ethyl-6,8-dihydro-1H-furo[3,4-d]pyrrolo[3,2-b]pyridine-2-carboxamide] are 11 nM and 1380 nM.
On the same counts, the results for `CCN(C(=O)c1cc2nc(N)c3c(c2[nH]1)COC3)[C@@H](C)c1ncc(Br)cc1F` [Example 144, (S)-5-amino-N-(1-(5-bromo-3-fluoropyridin-2-yl)ethyl)-N-ethyl-6,8-dihydro-1H-furo[3,4-d]pyrrolo[3,2-b]pyridine-2-carboxamide] are 543 nM and over 10000 nM.
On to `C[C@H](c1ccc(C(F)(F)F)cc1F)N(C)C(=O)c1cc2nc(N)c3c(c2[nH]1)COC3` [Example 145, (R)-5-amino-N-(1-(2-fluoro-4-(trifluoromethyl)phenyl)ethyl)-N-methyl-6,8-dihydro-1H-furo[3,4-d]pyrrolo[3,2-b]pyridine-2-carboxamide], for which the IC50 came to 26 nM in test [1] and 3430 nM in test [2].
Take `C[C@@H](c1ccc(C(F)(F)F)cc1F)N(C)C(=O)c1cc2nc(N)c3c(c2[nH]1)COC3` [Example 146, (S)-5-amino-N-(1-(2-fluoro-4-(trifluoromethyl)phenyl)ethyl)-N-methyl-6,8-dihydro-1H-furo[3,4-d]pyrrolo[3,2-b]pyridine-2-carboxamide]: the concentration for half-maximal inhibition (IC50) in test [1] was 316 nM; in test [2], over 10000 nM.
On the same counts, the results for `C[C@H]1OCc2c1c(N)nc1cc(C(=O)N(C)[C@@H](C)c3ccc(C(F)(F)F)cc3F)[nH]c21` [Example 147, (R)-5-amino-N—((S)-1-(2-fluoro-4-(trifluoromethyl)phenyl)ethyl)-N,6-dimethyl-6,8-dihydro-1H-furo[3,4-d]pyrrolo[3,2-b]pyridine-2-carboxamide] are 1230 nM and 5420 nM.
Consider `C[C@H](c1ccc(C(F)(F)F)cc1F)N(C)C(=O)c1cc2nc(N)c3c(c2[nH]1)CO[C@@H]3C` [Example 148, (R)-5-amino-N—((R)-1-(2-fluoro-4-(trifluoromethyl)phenyl)ethyl)-N,6-dimethyl-6,8-dihydro-1H-furo[3,4-d]pyrrolo[3,2-b]pyridine-2-carboxamide], for which the IC50 in test [1] is 19 nM; in test [2], 2440 nM.
As to `C[C@@H](c1c(F)cc(C(F)(F)F)cc1F)N(C)C(=O)c1cc2nc(N)c3c(c2[nH]1)COC3` [Example 149, (S)-5-amino-N-(1-(2,6-difluoro-4-(trifluoromethyl)phenyl)ethyl)-N-methyl-6,8-dihydro-1H-furo[3,4-d]pyrrolo[3,2-b]pyridine-2-carboxamide], the 50% inhibitory concentration (IC50) in test [1] was 2680 nM; in test [2] it was over 10000 nM.
Turning to `C[C@H](c1c(F)cc(C(F)(F)F)cc1F)N(C)C(=O)c1cc2nc(N)c3c(c2[nH]1)COC3` [Example 150, (R)-5-amino-N-(1-(2,6-difluoro-4-(trifluoromethyl)phenyl)ethyl)-N-methyl-6,8-dihydro-1H-furo[3,4-d]pyrrolo[3,2-b]pyridine-2-carboxamide], the IC50 in test [1] amounted to 32 nM; in test [2], 2790 nM.
On the same counts, the results for `Cc1cc([C@@H](C)N(C)C(=O)c2cc3nc(N)c4c(c3[nH]2)COC4)c(F)cc1C1CC1` [Example 151, (R)-5-amino-N-(1-(4-cyclopropyl-2-fluoro-5-methylphenyl)ethyl)-N-methyl-6,8-dihydro-1H-furo[3,4-d]pyrrolo[3,2-b]pyridine-2-carboxamide] are 85 nM and over 10000 nM.
On the same counts, the results for `Cc1cc([C@H](C)N(C)C(=O)c2cc3nc(N)c4c(c3[nH]2)COC4)c(F)cc1C1CC1` [Example 152, (S)-5-amino-N-(1-(4-cyclopropyl-2-fluoro-5-methylphenyl)ethyl)-N-methyl-6,8-dihydro-1H-furo[3,4-d]pyrrolo[3,2-b]pyridine-2-carboxamide] are 1280 nM and over 10000 nM.
As for `C[C@H](c1ncc(C2CC2)cc1F)N(C(=O)c1cc2nc(N)c3c(c2[nH]1)COC3)C1CCC1` [Example 153, (R)-5-amino-N-cyclobutyl-N-(1-(5-cyclopropyl-3-fluoropyridin-2-yl)ethyl)-6,8-dihydro-1H-furo[3,4-d]pyrrolo[3,2-b]pyridine-2-carboxamide], the IC50 in test [1] was 10 nM; in test [2] it was 610 nM.
On the same counts, the results for `C[C@@H](c1ncc(C2CC2)cc1F)N(C(=O)c1cc2nc(N)c3c(c2[nH]1)COC3)C1CCC1` [Example 154, (S)-5-amino-N-cyclobutyl-N-(1-(5-cyclopropyl-3-fluoropyridin-2-yl)ethyl)-6,8-dihydro-1H-furo[3,4-d]pyrrolo[3,2-b]pyridine-2-carboxamide] are 1630 nM and 8520 nM.
As to `C[C@H](c1ncc(C(F)(F)F)cc1F)N(C(=O)c1cc2nc(N)c3c(c2[nH]1)COC3)C1CCC1` [Example 155, (R)-5-amino-N-cyclobutyl-N-(1-(3-fluoro-5-(trifluoromethyl)pyridin-2-yl)ethyl)-6,8-dihydro-1H-furo[3,4-d]pyrrolo[3,2-b]pyridine-2-carboxamide], the IC50 was determined as 19 nM in test [1] and 2250 nM in test [2].
On the same counts, the results for `C[C@@H](c1ncc(C(F)(F)F)cc1F)N(C(=O)c1cc2nc(N)c3c(c2[nH]1)COC3)C1CCC1` [Example 156, (S)-5-amino-N-cyclobutyl-N-(1-(3-fluoro-5-(trifluoromethyl)pyridin-2-yl)ethyl)-6,8-dihydro-1H-furo[3,4-d]pyrrolo[3,2-b]pyridine-2-carboxamide] are 523 nM and over 10000 nM.
On the same counts, the results for `COCCN(C(=O)c1cc2nc(N)c3c(c2[nH]1)COC3)[C@H](C)c1ncc(C(F)(F)F)cc1F` [Example 157, (R)-5-amino-N-(1-(3-fluoro-5-(trifluoromethyl)pyridin-2-yl)ethyl)-N-(2-methoxyethyl)-6,8-dihydro-1H-furo[3,4-d]pyrrolo[3,2-b]pyridine-2-carboxamide] are 64 nM and over 10000 nM.

For the origin of these results see US20240368177A1, “5-AMINO-6,8-DIHYDRO-1H-FURO[3,4-d]PYRROLO[3,2-b]PYRIDINE-2-CARBOXAMIDE DERIVATIVES AS MTA-COOPERATIVE INHIBITORS OF PRMT5” (BeiGene Switzerland GmbH, priority 2023, published 2024).
